Read-outs that look alike come from different tables or passages of the source.
Legend:
Format in all cases: cell-based, Escherichia coli
[1] = test system: wild-type E. coli K-12 str. BW25113; assay: microbe, parasite or virus in culture; details: technical duplicate; for MIC: Escherichia coli, BW25113
Method in brief: (§1)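 LB o/n 37 °C → PBS pH 7.4, OD600 ~1.0 → 1/2000 in MHB II; 2-fold cmpd series, duplicate, DMSO ctrl; 18 h 37 °C, 900 rpm; OD600 post minus pre.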

[2] = test system: E. coli ΔtolC; assay: microbe, parasite or virus in culture; details: for MIC: Escherichia coli, 18 h, read-out: Minimum Inhibitory Concentration, ΔtolC; for Minimum inhibitory concentration (MIC), ΔtolC: Table 10, without pore; for Minimum inhibitory concentration (MIC), ΔtolC / Minimum Inhibitory Concentration, ΔtolC: technical duplicate; for Minimum Inhibitory Concentration, ΔtolC: Table 13A, non-porinated
Method in brief: as §1

[3] = test system: E. coli EKO-35; assay: microbe, parasite or virus in culture; details: for Fold change of MICs: EKO-35 compared to EKO-35 (reference); for MIC: Escherichia coli, EKO35; for MIC / Minimum inhibitory concentration (MIC), EKO-35 / Minimum Inhibitory Concentration, EKO-35: technical duplicate
Method in brief: as §1

[4] = test system: EKO-35 araC::macAB Pore; assay: MIC susceptibility profiling, porinated efflux platform; details: for Fold changes of MICs: EKO-35 araC::macAB Pore compared to EKO-35-Pore; for MIC: Escherichia coli, read-out: Minimum inhibitory concentration; for MIC / Minimum inhibitory concentration: EKO-35 araC::macAB Pore, technical duplicate
Method in brief: (§2)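 E. coli strains carrying a genomically integrated constitutive fhuA ΔC/Δ4L pore were grown 18 h in LB at 37 °C, then diluted 1/2000 in MHB II from OD600 ~1.0. Compounds were tested in duplicate, 2-fold serial titration, for 18 h at 37 °C with shaking. MIC came from OD600 with the pre-incubation background subtracted.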

[5] = test system: EKO-35 araC::mdtEF Pore; assay: as above; details: for Fold changes of MICs: EKO-35 araC::mdtEF Pore compared to EKO-35-Pore; for MIC: Escherichia coli, read-out: Minimum inhibitory concentration, EKO-35 araC::mdtEF Pore; for MIC / Minimum inhibitory concentration, EKO-35 araC::mdtEF Pore: Table 14A, porinated, technical duplicate
Method in brief: as §2

[6] = test system: EKO-35 araC::mdtBC Pore; assay: as above; details: for Fold changes of MICs: EKO-35 araC::mdtBC Pore compared to EKO-35-Pore; for MIC: Escherichia coli, read-out: Minimum inhibitory concentration; for MIC / Minimum inhibitory concentration: EKO-35 araC::mdtBC Pore, technical duplicate
Method in brief: as §2

[7] = test system: EKO-35 araC::mexCD Pore; assay: as above; details: for Fold changes of MICs: EKO-35 araC::mexCD Pore compared to EKO-35-Pore; for MIC: Escherichia coli, read-out: Minimum inhibitory concentration; for MIC / Minimum inhibitory concentration: EKO-35 araC::mexCD Pore, technical duplicate
Method in brief: as §2

[8] = test system: EKO-35 araC::emrKY Pore; assay: as above; details: for Fold changes of MICs: EKO-35 araC::emrKY Pore compared to EKO-35-Pore; for Minimum inhibitory concentration / MIC: EKO-35 araC::emrKY Pore, technical duplicate; for MIC: Escherichia coli, read-out: Minimum inhibitory concentration
Method in brief: as §2

[9] = Table 10, without pore, read-out: Minimum inhibitory concentration (MIC), K-12
[10] = Table 13A, non-porinated, read-out: Minimum Inhibitory Concentration, K-12
[11] = Table 10, without pore, read-out: Minimum inhibitory concentration (MIC), EKO-35
[12] = Table 13A, non-porinated, read-out: Minimum Inhibitory Concentration, EKO-35

Compound | MIC [1, 9] | MIC [1, 10] | MIC [2] | Minimum inhibitory concentration (MIC), ΔtolC [2] | Fold change of MICs [3] | MIC [3, 11] | MIC [3, 12] | Fold changes of MICs [4] | Fold changes of MICs [5] | Fold changes of MICs [6] | Fold changes of MICs [7] | Fold changes of MICs [8] | Minimum inhibitory concentration (MIC), K-12 ([1]; Table 10, without pore) | Minimum Inhibitory Concentration, K-12 ([1]; Table 13A, non-porinated) | Minimum Inhibitory Concentration, ΔtolC [2] | Minimum inhibitory concentration (MIC), EKO-35 ([3]; Table 10, without pore) | Minimum Inhibitory Concentration, EKO-35 ([3]; Table 13A, non-porinated) | Minimum inhibitory concentration [4] | Minimum inhibitory concentration, EKO-35 araC::mdtEF Pore [5] | Minimum inhibitory concentration [6] | other results
CN[C@H](CC(C)C)C(=O)N[C@H]1C(=O)N[C@@H](CC(N)=O)C(=O)N[C@H]2C(=O)N[C@H]3C(=O)N[C@H](C(=O)N[C@H](C(=O)O)c4cc(O)cc(O)c4-c4cc3ccc4O)[C@H](O)c3ccc(c(Cl)c3)Oc3cc2cc(c3O[C@@H]2O[C@H](CO)[C@@H](O)[C@H](O)[C@H]2O[C@H]2C[C@](C)(N)[C@H](O)[C@H](C)O2)Oc2ccc(cc2Cl)[C@H]1O [vancomycin] | 200 µg/mL | 200 µg/mL | 200 µg/mL | 200 µg/mL | 1 fold | 200 µg/mL | 200 µg/mL | 1 fold | 1 fold | 0 fold | 1 fold | 1 fold | – | – | – | – | – | – | – | – | MIC [4]: 6.25 µg/mL; MIC [5]: 6.25 µg/mL; MIC [6]: 1.56 µg/mL; MIC [7]: 6.25 µg/mL
C[n+]1c2cc(N)ccc2cc2ccc(N)cc21.[Cl-] [acriflavine] | – | – | – | 3.125 µg/mL | 1 fold | – | – | 2 fold | 2 fold | 1 fold | 4 fold | 1 fold | 50 µg/mL | 50 µg/mL | 3.125 µg/mL | 0.098 µg/mL | 0.098 µg/mL | 0.195 µg/mL | 0.195 µg/mL | 0.098 µg/mL | susceptibility of EKO-35 compared with the ΔtolC mutant [3]: more susceptible; Minimum inhibitory concentration [7]: 0.391 µg/mL; Minimum inhibitory concentration [8]: 0.098 µg/mL
deoxycholate | – | – | – | 187.5 µg/mL | 1 fold | – | – | 1 fold | 8 fold | 4 fold | 2 fold | 1 fold | 1500 µg/mL | 1500 µg/mL | 187.5 µg/mL | 375 µg/mL | 375 µg/mL | 187.5 µg/mL | 1500 µg/mL | 750 µg/mL | Minimum inhibitory concentration [7]: 375 µg/mL; efflux pump-mediated resistance vs EKO-35-Pore ([7]; MexCD, OM compromised): no longer associated MexCD with resistance; Minimum inhibitory concentration [8]: 187.5 µg/mL
O=C(Nc1cccc(Oc2c(F)c(F)c(F)c(F)c2F)c1)c1ccccc1 [compound 1] | – | – | – | 5 µg/mL | 1 fold | – | – | 1 fold | 1 fold | 1 fold | 1 fold | 1 fold | 320 µg/mL | 320 µg/mL | 5 µg/mL | 320 µg/mL | 320 µg/mL | 320 µg/mL | 320 µg/mL | 320 µg/mL | Minimum inhibitory concentration [7]: 320 µg/mL; Minimum inhibitory concentration [8]: 320 µg/mL
CN[C@@H]1[C@H](O)[C@H](NC)[C@H]2O[C@@]3(O)C(=O)C[C@@H](C)O[C@H]3O[C@@H]2[C@H]1O [Spectinomycin] | 25 µg/mL | 25 µg/mL | 6.25 µg/mL | 6.25 µg/mL | 1 fold | 25 µg/mL | 25 µg/mL | 1 fold | 1 fold | 1 fold | 1 fold | 1 fold | – | – | – | – | – | – | – | – | –
Nc1ccccc1SCc1nc(-c2ccc(Cl)cc2)no1 [compound 16] | – | – | – | 10 µg/mL | 1 fold | – | – | 1 fold | 16 fold | 1 fold | 16 fold | 1 fold | 320 µg/mL | 320 µg/mL | 10 µg/mL | 10 µg/mL | 10 µg/mL | 5 µg/mL | 80 µg/mL | 5 µg/mL | susceptibility of EKO-35 to the compound ([3]; synthetic efflux substrates of FIG. 12): susceptible; Minimum inhibitory concentration [7]: 80 µg/mL; Minimum inhibitory concentration [8]: 2.5 µg/mL
CCn1cc(C(=O)O)c(=O)c2ccc(C)nc21 [nalidixic acid] | 10 µg/mL | 10 µg/mL | 1.25 µg/mL | 1.25 µg/mL | 1 fold | 1.25 µg/mL | 1.25 µg/mL | 1 fold | 1 fold | 1 fold | 2 fold | 1 fold | – | – | – | – | – | – | – | – | MIC [4]: 1.25 µg/mL; MIC [5]: 1.25 µg/mL; MIC [6]: 1.25 µg/mL; MIC [7]: 2.5 µg/mL; MIC [8]: 1.25 µg/mL
NC[C@H]1O[C@H](O[C@H]2[C@H](O)[C@@H](O[C@H]3O[C@H](CO)[C@@H](O)[C@H](N)[C@H]3O)[C@H](N)C[C@@H]2N)[C@H](O)[C@@H](O)[C@@H]1O [kanamycin] | 3.12 µg/mL | 3.12 µg/mL | 1.56 µg/mL | 1.563 µg/mL | 1 fold | 3.12 µg/mL | 3.12 µg/mL | 2 fold | 1 fold | 1 fold | 1 fold | 1 fold | – | – | – | – | – | – | – | – | MIC [5]: 1.56 µg/mL; MIC [6]: 1.56 µg/mL; MIC [7]: 1.56 µg/mL; MIC [8]: 1.56 µg/mL
